Results taken from US20020034725A1, “SENSITIZATION OF CELLS TO RADIATION AND AND CHEMOTHERAPY” (priority 1996, published 2002).

Test system: H-ras
Assay: Western blot of ras farnesylation in mouse prostate tumor cells
Type: cell-based
Details: primary tumor cells or metastatic clone, 24 hours
Description: FIG. 13A is an image of a Western blot depicting the effects of FTI-277 on ras farnesylation in cultured cells derived from a primary and a metastatic tumor following 24 hours of treatment with the inhibitor at the indicated concentrations. Mouse prostate tumor cells transformed with H-ras^v12 and myc oncogenes were treated with the indicated doses (μM) of FTI-277. After 24 hours, samples were harvested for Western blot analysis using an anti-H-ras antibody. The upper band (arrow) corresponds to unfarnesylated H-ras. C denotes controls.
Cells were lysed in culture dishes with 1 x reducing Laemmli sample buffer. Samples were boiled, sheared and clarified by centrifugation at 14,000 rpm in a microfuge before storage at −20° C. Samples containing equal amounts of protein were separated on a 12% SDS polyacrylamide gel and electrophoretically transferred to nitrocellulose membranes. Membranes were blocked for 1-2 hours in PBS containing 0.1% Tween-20 and 5% powdered milk before antibody addition. Membranes were probed with monoclonal pan-ras antibody AB-4 (Oncogene Science, Uniondale, N.Y.) at a concentration of 0.5 μg/ml, or with monoclonal H-ras antibody LA069 (1:5000 dilution; Quality Biotech, Camden, N.J.). Detection of protein was accomplished using the ECL chemiluminescence kit (Amersham, Arlington Heights, Ill.). […]

COC(=O)[C@H](CCSC)NC(=O)c1ccc(NC[C@@H](N)CS)cc1-c1ccccc1 [FTI-277]
H-ras farnesylation: dose-dependent reduction of the farnesylated form
